These are literature values, as cited in patent US20260315441A1, “FORMULATIONS OF PENICILLIN AND METHODS FOR STABILIZING PENICILLIN” (VETERINARY PHARMACY CORPORATION, priority 2023, published 2026).

Structures are written as SMILES. Like-named read-outs stand apart in the source and are kept apart here.

Consider `CC1(C)S[C@@H]2[C@H](NC(=O)Cc3ccccc3)C(=O)N2[C@H]1C(=O)O` [Penicillin G, benzylpenicillin], for which the “pH of highest stability” value (aqueous solution) was 5-8 pH. Also, the “degradation of penicillin G” value is recorded as 1.92 %/hour (at 5° C.) and 3.29 %/hour (at 37° C.).
With `CC1(C)S[C@@H]2[C@H](NC(=O)Cc3ccccc3)C(=O)N2[C@H]1C(=O)O` [Penicillin], where the note is “aqueous solution”, the “minimum degradation pH point” value was 6.5 pH. The “stability outside of the pH range of 5-8” value (pH outside 5-8) is listed as “very unstable”.
